Reference: patent US7514422B2, “5HT2c receptor modulators” (Arena Pharmaceuticals, Inc., priority 2002, dated 2009)

Target: T1, human 5-HT2c receptor (Homo sapiens, UniProt P28335)
T1 construct: expressed in transfected cells; host or cells: HEK293
T1 sequence (P28335 33-458): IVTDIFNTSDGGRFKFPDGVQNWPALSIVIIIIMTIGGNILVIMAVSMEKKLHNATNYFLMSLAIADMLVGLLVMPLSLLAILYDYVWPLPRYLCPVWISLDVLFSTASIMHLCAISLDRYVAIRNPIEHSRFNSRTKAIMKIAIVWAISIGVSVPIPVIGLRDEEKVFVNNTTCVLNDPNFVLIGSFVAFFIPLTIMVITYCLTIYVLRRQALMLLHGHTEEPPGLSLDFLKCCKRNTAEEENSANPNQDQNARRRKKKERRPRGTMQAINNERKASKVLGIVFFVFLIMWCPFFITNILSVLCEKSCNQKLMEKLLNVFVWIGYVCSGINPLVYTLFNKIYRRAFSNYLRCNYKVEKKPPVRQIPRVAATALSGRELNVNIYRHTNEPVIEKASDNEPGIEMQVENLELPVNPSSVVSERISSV
Experiment: Intracellular IP3 Accumulation Assay
Assay type: cell-based
Details: HEK293 cells transfected with human 5-HT2c receptor; averages of at least two trials; read-out: 5-HT2C (IC50) IP Accumulation Assay
Procedure: HEK293 cells were transfected in 15 cm sterile dishes with or without (control) 16 ug of human 5-HT2c receptor cDNA using 25 ul of lipofectamine. Cells were then incubated for 34 hours at 37° C/5% CO2 and then transfection media was removed and replaced with 100 ul of DMEM. Cells were then plated onto […] sterile dishes. The next day cells were plated into 96 well PDL microtiter plates at a density of 55K/0.2 ml. Six hours latter, media was exchanged with [^3H]inositol (0.25 uCi/well) in inositol free DMEM and plates were incubated at 37° C./5% CO2 overnight. The next day, wells were aspirated and 200 ul of DMEM containing test compound, 10 uM pargyline, and 10 mM LiCl was added to appropriate wells. Plates were then incubated at 37° C./5% CO2 for three hours followed aspiration and by addition of fresh ice cold stop solution (1M KOH, 19 mM Na-borate, 3.8 mM EDTA) to each well. Plates were kept on ice for 5-10 min and the wells were neutralized by addition of 200 ul of fresh ice cold neutralization solution (7.5% HCl). Plates were then frozen until further processing is desired. The lysate was then transferred into 1.5 ml Eppendorf tubes and 1 ml of chloroform/methanol (1:2) was added/tube. The solution was vortexed for 15 seconds and the upper phase was applied to a Biorad AG1-X8™ anion exchange resin (100-200 mesh). First, the resin was washed with water at 1:1.25 W/V and 0.9 ml of upper phase was loaded onto the column. The column was then washed with 10 ml of 5 mM myo-inositol and 10 ml of 5 mM Na-borate/60 mM Na-formate. The inositol tris phosphates were eluted into scintillation vials containing 10 ml of scintillation cocktail with 2 ml of 0.1 M formic acid/1 M ammonium formate. The columns were regenerated by washing with 10 ml of 0.1 M formic acid/3M ammonium formate and rinsed twice with dd H2O and stored at 4° C. in water.

Row | SMILES | IC50 [nM]
1 | COc1cc2c(cc1Br)C(C)CNCC2 (racemic) [Example 1, (R,S) 8-Bromo-7-methoxy-1-methyl-2,3,4,5-tetrahydro-1H-3-benzazepine] | 4.2
2 | COc1cc2c(cc1Cl)C(C)CNCC2 (racemic) [Example 2, (R,S) 8-Chloro-7-methoxy-1-methyl-2,3,4,5-tetrahydro-1H-3-benzazepine] | 4.5
3 | COc1cc2c(cc1I)C(C)CNCC2 (racemic) [Example 3, (R,S) 8-Iodo-7-methoxy-1-methyl-2,3,4,5taetrhydro-1H-3-benzazepine] | 1.4
4 | CC1CNCCc2cc(O)c(Br)cc21 (racemic) [Example 4, (R,S) 8-Bromo-7-hydroxy-1-methyl-2,3,4,5tetrahydro-1H-3-benzazepine] | 2.1
5 | C=CCOc1cc2c(cc1Br)C(C)CNCC2 (racemic) [Example 5, (R,S) 7-Allyloxy-8-bromo-1-methyl-2,3,4,5tetrahydro-1H-3-benzazepine] | 12.1
6 | C=CCOc1cc2c(cc1I)C(C)CNCC2 (racemic) [Example 12, (R,S) 7-Allyloxy-8-iodo-1-methyl-2,3,4,5-tetrahydro-1H-3-benzazepine] | 6.3
7 | CCC1CNCCc2cc(OC)c(Br)cc21 (racemic) [Example 19, (R,S) 8-Bromo-1-ethyl-7-methoxy-2,3,4,5-tetrahydro-1H-3-benzazepine] | 18
8 | CC1CNCCc2ccc(Br)cc21 (racemic) [Example 32, (R,S) 8-Bromo-1-methyl-2,3,4,5tetrahydro-1H-3-benzazepine] | 2.1
